Assay results reported in ChEMBL document CHEMBL3272016, “Potential inhibitors of collagen biosynthesis. 5,5-Difluoro-DL-lysine and 5,5-dimethyl-DL-lysine and their activation by lysyl-tRNA ligase” (J Med Chem, 1977).
Active and inactive are the calls of the source. The rule behind the calls is not given here.

What was measured:
P388 [1] = experiment: Cytotoxicity against mouse P388 cells assessed as growth inhibition at 0.5 mM after 72 hrs by hemocytometry; format: functional; settings: P388, 72 h, read-out: GI
[2] = Dissociation constant, pKa of the compound; format: physicochemical
P388 [3] = experiment: Cytotoxicity against mouse P388 cells assessed as growth inhibition at 0.55 mM after 72 hrs by hemocytometry; format: functional, cell-based
Mus musculus [4] = organism: Mus musculus; experiment: Inhibition of peptidyl lysine hydroxylase in mouse L929 fibroblasts assessed as release of [3H] as [3H]OH from [4,5-3H]lysylprotocollagen measured per mg of protein at 5 mM (reference value: 1228 cpm)
Mus musculus [5] = organism: Mus musculus; experiment: Inhibition of peptidyl lysine hydroxylase in mouse L929 fibroblasts assessed as release of [3H] as [3H]OH from [4,5-3H]lysylprotocollagen measured per mg of protein at 0.05 mM (reference value: 1228 cpm)
Mus musculus [6] = organism: Mus musculus; experiment: Inhibition of peptidyl lysine hydroxylase in mouse L929 fibroblasts assessed as release of [3H] as [3H]OH from [4,5-3H]lysylprotocollagen measured per mg of protein at 0.20 mM (reference value: 1228 cpm)
Mus musculus [7] = organism: Mus musculus; experiment: Inhibition of peptidyl lysine hydroxylase in mouse L929 fibroblasts assessed as release of [3H] as [3H]OH from [4,5-3H]lysylprotocollagen measured per mg of protein at 0.01 mM (reference value: 1228 cpm)
L929 = experiment: Inhibition of collagen biosynthesis in mouse L929 fibroblasts assessed as [3H]lysine/[14C]proline incorporation into protein at 5 mM; format: functional, cell-based
Mus musculus [8] = organism: Mus musculus; experiment: Inhibition of peptidyl lysine hydroxylase in mouse L929 fibroblasts
Mus musculus [9] = organism: Mus musculus; experiment: Inhibition of peptidyl lysine hydroxylase in mouse L929 fibroblasts assessed as release of [3H] as [3H]OH from [4,5-3H]lysylprotocollagen measured per mg of protein at 0.10 mM (reference value: 1228 cpm)
Mus musculus [10] = organism: Mus musculus; experiment: Inhibition of peptidyl lysine hydroxylase in mouse L929 fibroblasts assessed as release of [3H] as [3H]OH from [4,5-3H]lysylprotocollagen measured per mg of protein at 2 mM (reference value: 1228 cpm)
Mus musculus [11] = organism: Mus musculus; experiment: Inhibition of peptidyl lysine hydroxylase in mouse L929 fibroblasts assessed as release of [3H] as [3H]OH from [4,5-3H]lysylprotocollagen measured per mg of protein at 1 mM (reference value: 1228 cpm)
[12] = Competitive inhibition of Escherichia coli B lysyl-tRNA ligase using lysine as substrate after 15 mins by double reciprocal plot analysis; settings: read-out: Ki(app)
P388 [13] = experiment: Cytotoxicity against mouse P388 cells assessed as growth inhibition at 0.15 mM after 72 hrs by hemocytometry; format: functional; settings: P388, 72 h, read-out: GI

Description for Escherichia coli B: Activity of Escherichia coli B lysyl-tRNA ligase after 15 mins by Lineweaver-Burk plot analysis

In the case of `NCCSC[C@H](N)C(=O)O`, the Km (Escherichia coli B) is reported as 1.4 µM, the inhibition of growth at 500 µM (P388 [1]) is reported as 93% and the pKa [2] is reported as 9.52.
In the case of `NCC(F)(F)CCC(N)C(=O)O` (racemic), the “growth inhibition (GI)” value (P388 [3]) is reported as “inactive”, the Km (Escherichia coli B) is reported as 1310 µM and the Activity (Mus musculus [4]) is reported as 920 cpm. It also gave an Activity (Mus musculus [5]) of 1270 cpm, an Activity (Mus musculus [6]) of 1270 cpm and an Activity (Mus musculus [7]) of 1220 cpm. For the same compound, the pKa [2] was 6.88, the Activity (L929) was “inactive” and the inhibition (Mus musculus [8]) was “inactive”. It also gave an Activity (Mus musculus [9]) of 1230 cpm, an Activity (Mus musculus [10]) of 1080 cpm and an Activity (Mus musculus [11]) of 1070 cpm.
In the case of `CC(C)(CN)CCC(N)C(=O)O` (racemic), the “growth inhibition (GI)” value (P388 [3]) is reported as “inactive”, the pKa [2] is reported as 10.2 and the Ki [12] is reported as 16.2 mM.
For `NC(=O)NO` [HYDROXYUREA], the inhibition of growth at 150 µM (P388 [13]) was 87%.
`NCCCC[C@H](N)C(=O)O` [LYSINE] showed a Km (Escherichia coli B) of 0.5 µM and a pKa [2] of 10.6.
